Measured values from patent US9480259B2, “Pyrazolopyrans having herbicidal and pharmaceutical properties” (BASF SE, priority 2012, dated 2016).

Target: Arabidopsis thaliana SHMT
Assay: SHMT activity assay (ED50 SHMT), coupled with N5,N10-CH2-THF dehydrogenase, NADH at 340 nm
Assay type: biochemical
Outline: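 His-tagged SHMT purified on Ni-NTA. NADH formation followed at 340 nm for 30 min; ED50 from inhibition of initial velocity.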

[1] = Table 2, Arabidopsis thaliana SHMT enzyme assay, values given as upper bounds
[2] = Table 2, values given as upper bounds
[3] = Arabidopsis thaliana SHMT enzyme assay, values given as upper bounds
[4] = inhibition of initial velocity of Arabidopsis thaliana SHMT

SMILES | EC50 [2] | other results
Cc1n[nH]c2c1C(c1cc(Cl)cc(C(F)(F)F)c1)(C1CCC1)C(C#N)=C(N)O2 (stereo not drawn) [Compound 2.221] |  | EC50 [1]: < 10 nM
N#CC1=C(N)Oc2[nH]ncc2C1(c1cc(C#N)cc(-c2nccs2)c1)C1CCC1 (stereo not drawn) [Compound 2.351] |  | EC50 [1]: < 10 nM
CCC1(c2cc(C(F)(F)F)cc(C(F)(F)F)c2)C(C#N)=C(N)Oc2[nH]nc(C(C)C)c21 (stereo not drawn) [Compound 2.120.] | < 100 nM | 
Cc1n[nH]c2c1C(c1cc(Cl)cc(N3CCOCC3)c1)(C1CCC1)C(C#N)=C(N)O2 (stereo not drawn) [Compound 2.488] | < 10 nM | 
Cc1n[nH]c2c1C(c1cc(CCCC#N)cc(-c3nnn[nH]3)c1)(C(C)C)C(C#N)=C(N)O2 (stereo not drawn) [Compound 2.711] |  | EC50 [3]: < 100 nM
Cc1n[nH]c2c1C(c1cc(C#N)cc(-c3ccc(OCC(=O)O)cc3)c1)(C1CCC1)C(C#N)=C(N)O2 (stereo not drawn) [Compound 2.538] | < 10 nM | 
N#CC1=C(N)Oc2[nH]ncc2C1(c1cc(I)cc(I)c1)C1CCC1 (stereo not drawn) [Compound 2.309] |  | EC50 [1]: < 10 nM
Cc1n[nH]c2c1C(c1ccc(OCc3ccccc3)c(Cl)c1)(C(C)C)C(C#N)=C(N)O2 (stereo not drawn) [Compound 2.185.] | < 100 nM | 
Cc1n[nH]c2c1C(c1cc(C#N)cc(-c3cccc(C(=O)O)c3)c1)(C1(F)COC1)C(C#N)=C(N)O2 (stereo not drawn) [Compound 2.656] |  | EC50 [3]: < 10 nM
Cc1n[nH]c2c1C(c1cc(Cl)cc(N(C)C(=O)CC#N)c1)(C1CCC1)C(C#N)=C(N)O2 (stereo not drawn) [Compound 2.696] |  | EC50 [3]: < 10 nM
N#CC1=C(N)Oc2[nH]ncc2C1(c1cc(Cl)cc(I)c1)C1CCC1 (stereo not drawn) [Compound 2.298] |  | EC50 [1]: < 10 nM
CCC1(c2cccc(C(F)(F)F)c2)C(C#N)=C(N)Oc2[nH]nc(C3CC3)c21 (stereo not drawn) [Compound 2.119.] | < 1000 nM | 
CCCC1(c2cc(Br)cc(C#N)c2)C(C#N)=C(N)Oc2[nH]nc(C(F)F)c21 (stereo not drawn) [Compound 2.609] | < 100 nM | 
Cc1n[nH]c2c1C(c1cc(C#N)cc(-c3cc(F)cc(C(=O)O)c3)c1)(C1CCC1)C(C#N)=C(N)O2 (stereo not drawn) [Compound 2.545] | < 10 nM | 
Cc1n[nH]c2c1C(c1ccc(-c3ccco3)s1)(C1CCC1)C(C#N)=C(N)O2 (stereo not drawn) [Compound 4.3] |  | EC50 [4]: < 10 nM
CCC1(c2ccc(O)c(C)c2)C(C#N)=C(N)Oc2[nH]nc(C)c21 (stereo not drawn) [Compound 2.25.] | < 1000 nM | 
Cc1n[nH]c2c1C(c1cc(Br)cc(C#N)c1)(C1CC=CC1)C(C#N)=C(N)O2 (stereo not drawn) [Compound 2.377] |  | EC50 [1]: < 10 nM
Cc1n[nH]c2c1C(c1cc(Cl)cc(SCc3nnn[nH]3)c1)(C1CCC1)C(C#N)=C(N)O2 (stereo not drawn) [Compound 2.667] |  | EC50 [3]: < 10 nM
Cc1n[nH]c2c1C(c1cc(Cl)cc(-c3ccc(NS(C)(=O)=O)cc3)c1)(C1CCC1)C(C#N)=C(N)O2 (racemic) [Compound 2.528] | < 10 nM | 
CCc1n[nH]c2c1C(c1cccc(C(F)(F)F)c1)(C1CC1)C(C#N)=C(N)O2 (stereo not drawn) [Compound 2.104.] | < 1000 nM | 
CCC1(c2ccc(Oc3ccc(C(F)(F)F)cc3Cl)c(C)c2)C(C#N)=C(N)Oc2[nH]nc(C)c21 (stereo not drawn) [Compound 2.23.] | < 10000 nM | 
Cc1n[nH]c2c1C(c1cc(Br)cc(C#N)c1)(C1CC1)C(C#N)=C(N)O2 (stereo not drawn) [Compound 2.365] |  | EC50 [1]: < 10 nM

SMILES | EC50 [2] | other results
CCC1(c2cc(C#N)cc(C(F)(F)F)c2)C(C#N)=C(N)Oc2[nH]nc(C)c21 (racemic) [Compound 2.530] | < 10 nM | 
Cc1n[nH]c2c1C(c1cc(Br)cc(Br)c1)(C1CC=CC1)C(C#N)=C(N)O2 (stereo not drawn) [Compound 2.300] |  | EC50 [1]: < 10 nM
Cc1n[nH]c2c1C(c1cc(C#N)cc(N(C)CC#N)c1)(C1CCC1)C(C#N)=C(N)O2 (stereo not drawn) [Compound 2.631] | < 10 nM | 
Cc1n[nH]c2c1C(c1cc(Cl)cc(Oc3ccccc3)c1)(C1CCC1)C(C#N)=C(N)O2 (stereo not drawn) [Compound 2.179.] | < 100 nM | 
Cc1n[nH]c2c1C(c1cc(Cl)cc(Oc3cc(F)c(O)c(F)c3)c1)(C1CCC1)C(C#N)=C(N)O2 (stereo not drawn) [Compound 2.596] | < 10 nM | 
CCCc1n[nH]c2c1C(CC)(c1cccc(Cl)c1)C(C#N)=C(N)O2 (stereo not drawn) [Compound 2.85.] | < 10000 nM | 
CCC1(c2cc(C#N)cc(C(F)(F)F)c2)C(C#N)=C(N)Oc2[nH]nc(C(C)C)c21 (stereo not drawn) [Compound 2.581] | < 100 nM | 
COc1ccc(-c2cc(C#N)cc(C3(C4CCC4)C(C#N)=C(N)Oc4[nH]nc(C)c43)c2)cc1C(F)(F)F (stereo not drawn) [Compound 2.547] | < 10 nM | 
CCC1(c2cc(Cl)cc(C#N)c2)C(C#N)=C(N)Oc2[nH]nc(C(C)C)c21 (stereo not drawn) [Compound 2.580] | < 100 nM | 
CCC1(c2ccc(Oc3ccccc3)cc2)C(C#N)=C(N)Oc2[nH]nc(C(C)C)c21 (racemic) [Compound 2.160.] | < 10000 nM | 
Cc1n[nH]c2c1C(c1cc(-c3nnn[nH]3)cc(N(C)CCC#N)c1)(C1CCC1)C(C#N)=C(N)O2 (stereo not drawn) [Compound 2.692] |  | EC50 [3]: < 1000 nM
Cc1n[nH]c2c1C(c1cc(Cl)cc(-c3nccs3)c1)(C1CCC1)C(C#N)=C(N)O2 (stereo not drawn) [Compound 2.320] |  | EC50 [1]: < 10 nM
Cc1n[nH]c2c1C(c1cc(Cl)cc(-c3ccc(Cl)c(C(=O)O)c3)c1)(C1CCC1)C(C#N)=C(N)O2 (stereo not drawn) [Compound 2.557] | < 10 nM | 
Cc1n[nH]c2c1C(c1cc(Cl)cc(CCCc3nnn[nH]3)c1)(C1CCC1)C(C#N)=C(N)O2 (stereo not drawn) [Compound 2.677] |  | EC50 [3]: < 10 nM
Cc1n[nH]c2c1C(c1cc(Cl)cc(Oc3ccc(Cl)cc3)c1)(C1CC1)C(C#N)=C(N)O2 (racemic) [Compound 2.342] |  | EC50 [1]: < 10 nM
N#CC1=C(N)Oc2[nH]ncc2C1(c1cc(Cl)cc(Br)c1)C1CCC1 (stereo not drawn) [Compound 2.248] |  | EC50 [1]: < 10 nM
COc1ccc(C2(C3CCC3)C(C#N)=C(N)Oc3[nH]nc(C)c32)cc1Br (stereo not drawn) [Compound 2.208.] | < 10 nM | 
CCc1n[nH]c2c1C(c1cc(C#N)cc(C#N)c1)(C(C)C)C(C#N)=C(N)O2 (stereo not drawn) [Compound 2.520] | < 10 nM | 
Cc1n[nH]c2c1C(c1cc(Cl)cc(-c3ccc(F)cc3)c1)(C1CCC1)C(C#N)=C(N)O2 (stereo not drawn) [Compound 2.224] |  | EC50 [1]: < 10 nM
Cc1n[nH]c2c1C(c1cc(Br)cc(Br)c1)(C1CC(F)(F)C1)C(C#N)=C(N)O2 (stereo not drawn) [Compound 2.703] |  | EC50 [3]: < 100 nM
CCOc1n[nH]c2c1C(c1cc(Cl)cc(Cl)c1)(C(C)C)C(C#N)=C(N)O2 (stereo not drawn) [Compound 2.384] |  | EC50 [1]: < 10 nM
COc1ccc(C2(C3CCC3)C(C#N)=C(N)Oc3[nH]nc(C)c32)cc1C(F)(F)F (stereo not drawn) [Compound 2.176.] | < 10 nM | 

SMILES | EC50 [2] | other results
Cc1n[nH]c2c1C(c1cc(C#N)cc(-c3cc(C(=O)O)cs3)c1)(C1CCC1)C(C#N)=C(N)O2 (stereo not drawn) [Compound 2.683] |  | EC50 [3]: < 10 nM
COc1ccc(C2(C3CCC3)C(C#N)=C(N)Oc3[nH]nc(C)c32)cc1Cl (stereo not drawn) [Compound 2.178.] | < 10 nM | 
Cc1n[nH]c2c1C(c1cc(Cl)cc(CCC#N)c1)(C1CCC1)C(C#N)=C(N)O2 (stereo not drawn) [Compound 2.555] | < 10 nM | 
Cc1n[nH]c2c1C(c1cc(Cl)cc(-c3ccc(Cl)cc3)c1)(C1CCC1)C(C#N)=C(N)O2 (stereo not drawn) [Compound 2.225] |  | EC50 [1]: < 10 nM
Cc1n[nH]c2c1C(c1cc(C#N)cc(CCC#N)c1)(C1CCC1)C(C#N)=C(N)O2 (stereo not drawn) [Compound 2.650] | < 10 nM | 
CCCc1n[nH]c2c1C(CC)(c1cccc(C(F)(F)F)c1)C(C#N)=C(N)O2 (racemic) [Compound 2.99.] | < 10000 nM | 
Cc1n[nH]c2c1C(c1ccc(Cl)c(Cl)c1)(C1CCCC1)C(C#N)=C(N)O2 (stereo not drawn) [Compound 2.210.] | < 100 nM | 
CC(C)C1(c2cc(Cl)cc(Cl)c2)C(C#N)=C(N)Oc2[nH]nc(C3CC3)c21 (stereo not drawn) [Compound 2.136.] | < 100 nM | 
COc1cc(-c2cc(C#N)cc(C3(C4CCC4)C(C#N)=C(N)Oc4[nH]nc(C)c43)c2)ccc1C(=O)O (stereo not drawn) [Compound 2.561] | < 10 nM | 
Cc1n[nH]c2c1C(c1cccc(C(F)(F)F)c1)(C1CC1)C(C#N)=C(N)O2 (stereo not drawn) [Compound 2.60.] | < 1000 nM | 
N#CC1=C(N)Oc2[nH]ncc2C1(c1cc2ccccc2o1)C1CCC1 (stereo not drawn) [Compound 4.54] |  | EC50 [4]: < 100 nM
COC(=O)c1cc(-c2cc(C#N)cc(C3(C4CCC4)C(C#N)=C(N)Oc4[nH]nc(C)c43)c2)cc([N+](=O)[O-])c1 (stereo not drawn) [Compound 2.554] | < 10 nM | 
CC(C)C1(c2cc(C#N)cc(C#N)c2)C(C#N)=C(N)Oc2[nH]ncc21 (stereo not drawn) [Compound 2.336] |  | EC50 [1]: < 10 nM
Cc1n[nH]c2c1C(c1ccc(-c3ccccc3)s1)(C1CCC1)C(C#N)=C(N)O2 (stereo not drawn) [Compound 4.10] |  | EC50 [4]: < 10 nM
CCC1(c2ccc(F)c(Oc3ccccc3)c2)C(C#N)=C(N)Oc2[nH]nc(C)c21 (stereo not drawn) [Compound 2.11.] | < 1000 nM | 
Cc1n[nH]c2c1C(c1cc(Cl)cc(Cl)c1)(C1CC(F)(F)C1)C(C#N)=C(N)O2 (stereo not drawn) [Compound 2.652] | < 10 nM | 
Cc1n[nH]c2c1C(c1cc(Cl)cc(-c3cccc(NS(C)(=O)=O)c3)c1)(C1CCC1)C(C#N)=C(N)O2 (racemic) [Compound 2.527] | < 10 nM | 
Cc1n[nH]c2c1C(c1ccc(F)c(Cl)c1)(C1CCC1)C(C#N)=C(N)O2 (stereo not drawn) [Compound 2.182.] | < 100 nM | 
Cc1n[nH]c2c1C(c1ccc(Cl)cc1)(C1CCC1)C(C#N)=C(N)O2 (stereo not drawn) [Compound 2.138.] | < 1000 nM | 
Cc1n[nH]c2c1C(c1cc(C#N)cc(N(C)C(=O)c3ccc(C(=O)O)cc3)c1)(C1CCC1)C(C#N)=C(N)O2 (stereo not drawn) [Compound 2.634] | < 100 nM | 
Cc1n[nH]c2c1C(c1ccc(CCC(=O)O)c(C(F)(F)F)c1)(C1CCC1)C(C#N)=C(N)O2 (stereo not drawn) [Compound 2.543] | < 100 nM | 
CCC1(c2cc(Cl)cc(C#N)c2)C(C#N)=C(N)Oc2[nH]nc(C)c21 (stereo not drawn) [Compound 2.529] | < 10 nM | 
